Data from PubChem BioAssay (NCI).
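How tested: cells in 96-well plates exposed to compound for 48 hours at five concentrations. At the TGI there is no net growth.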

These compounds were tested on DMS 114 small cell lung (assay: NCI tumour cell line growth inhibition, 48 h).
Work on C/C(CC(=O)CCC(=O)Nc1cccc(C(F)(F)F)c1)=N\NC(=O)NN yielded a TGI of over 100 µM. COc1ccccc1C12OC(=O)C1(C)Oc1ccccc1C2=O (stereo not given) was tested, and the TGI was over 100 µM. With Brc1ccc(N=c2nc3ccccn3n3nc(-c4ccccc4)cc23)cc1 the TGI was over 100 µM. Compound O=CN/C=C/c1cc(O)ccc1O has a TGI of 31.8 µM. COC(=O)CC1CCN(C#N)CC1CC[N+](=O)[O-] (stereo not given) gave a TGI of over 100 µM.

The compounds below were run on SNB-75 CNS (assay: NCI tumour cell line growth inhibition, 48 h).
With C/C(CC(=O)CCC(=O)Nc1cccc(C(F)(F)F)c1)=N\NC(=O)NN the TGI was over 100 µM. COc1ccccc1C12OC(=O)C1(C)Oc1ccccc1C2=O (stereo not given) was tested, and the TGI was over 100 µM. For Brc1ccc(N=c2nc3ccccn3n3nc(-c4ccccc4)cc23)cc1, the TGI was over 100 µM. O=CN/C=C/c1cc(O)ccc1O gave a TGI of 98.2 µM. COC(=O)CC1CCN(C#N)CC1CC[N+](=O)[O-] (stereo not given) showed a TGI of over 100 µM.

Each compound was assayed on HCT-116 colon (assay: NCI tumour cell line growth inhibition, 48 h).
C/C(CC(=O)CCC(=O)Nc1cccc(C(F)(F)F)c1)=N\NC(=O)NN was tested, and the TGI was over 100 µM. Work on COc1ccccc1C12OC(=O)C1(C)Oc1ccccc1C2=O (stereo not given) yielded a TGI of over 100 µM. With Brc1ccc(N=c2nc3ccccn3n3nc(-c4ccccc4)cc23)cc1 the TGI was over 100 µM. For O=CN/C=C/c1cc(O)ccc1O, the TGI was 29.2 µM. With COC(=O)CC1CCN(C#N)CC1CC[N+](=O)[O-] (stereo not given) the TGI was over 100 µM.

What follows are compounds tested on UO-31 renal (assay: NCI tumour cell line growth inhibition, 48 h).
Compound C/C(CC(=O)CCC(=O)Nc1cccc(C(F)(F)F)c1)=N\NC(=O)NN has a TGI of over 100 µM. For COc1ccccc1C12OC(=O)C1(C)Oc1ccccc1C2=O (stereo not given), the TGI was over 100 µM. Brc1ccc(N=c2nc3ccccn3n3nc(-c4ccccc4)cc23)cc1 showed a TGI of over 100 µM. Compound O=CN/C=C/c1cc(O)ccc1O has a TGI of 46.3 µM. COC(=O)CC1CCN(C#N)CC1CC[N+](=O)[O-] (stereo not given) was tested, and the TGI was over 100 µM.

The compounds below were run on NCI-H460 lung (assay: NCI tumour cell line growth inhibition, 48 h).
With C/C(CC(=O)CCC(=O)Nc1cccc(C(F)(F)F)c1)=N\NC(=O)NN the TGI was over 100 µM. In the case of COc1ccccc1C12OC(=O)C1(C)Oc1ccccc1C2=O (stereo not given), the TGI is reported as over 100 µM. Brc1ccc(N=c2nc3ccccn3n3nc(-c4ccccc4)cc23)cc1 showed a TGI of over 100 µM. O=CN/C=C/c1cc(O)ccc1O showed a TGI of over 100 µM. COC(=O)CC1CCN(C#N)CC1CC[N+](=O)[O-] (stereo not given) showed a TGI of over 100 µM.

What follows are compounds tested on SF-539 CNS (assay: NCI tumour cell line growth inhibition, 48 h).
For C/C(CC(=O)CCC(=O)Nc1cccc(C(F)(F)F)c1)=N\NC(=O)NN, the TGI was over 100 µM. For COc1ccccc1C12OC(=O)C1(C)Oc1ccccc1C2=O (stereo not given), the TGI was over 100 µM. In the case of Brc1ccc(N=c2nc3ccccn3n3nc(-c4ccccc4)cc23)cc1, the TGI is reported as over 100 µM. Work on O=CN/C=C/c1cc(O)ccc1O yielded a TGI of 43.9 µM. Compound COC(=O)CC1CCN(C#N)CC1CC[N+](=O)[O-] (stereo not given) has a TGI of over 100 µM.

What follows are compounds tested on HOP-92 NSCLC (assay: NCI tumour cell line growth inhibition, 48 h).
C/C(CC(=O)CCC(=O)Nc1cccc(C(F)(F)F)c1)=N\NC(=O)NN showed a TGI of over 100 µM. For COc1ccccc1C12OC(=O)C1(C)Oc1ccccc1C2=O (stereo not given), the TGI was over 100 µM. With Brc1ccc(N=c2nc3ccccn3n3nc(-c4ccccc4)cc23)cc1 the TGI was 87.2 µM. Compound O=CN/C=C/c1cc(O)ccc1O has a TGI of 25.6 µM.

These compounds were tested on COLO 205 colon (assay: NCI tumour cell line growth inhibition, 48 h).
For C/C(CC(=O)CCC(=O)Nc1cccc(C(F)(F)F)c1)=N\NC(=O)NN, the TGI was over 100 µM. COc1ccccc1C12OC(=O)C1(C)Oc1ccccc1C2=O (stereo not given) gave a TGI of over 100 µM. Brc1ccc(N=c2nc3ccccn3n3nc(-c4ccccc4)cc23)cc1 gave a TGI of over 100 µM. Work on O=CN/C=C/c1cc(O)ccc1O yielded a TGI of 26.5 µM. For COC(=O)CC1CCN(C#N)CC1CC[N+](=O)[O-] (stereo not given), the TGI was over 100 µM.

These compounds were tested on SN12C renal (assay: NCI tumour cell line growth inhibition, 48 h).
With C/C(CC(=O)CCC(=O)Nc1cccc(C(F)(F)F)c1)=N\NC(=O)NN the TGI was over 100 µM. In the case of COc1ccccc1C12OC(=O)C1(C)Oc1ccccc1C2=O (stereo not given), the TGI is reported as over 100 µM. Compound Brc1ccc(N=c2nc3ccccn3n3nc(-c4ccccc4)cc23)cc1 has a TGI of over 100 µM. In the case of O=CN/C=C/c1cc(O)ccc1O, the TGI is reported as 31.3 µM. Compound COC(=O)CC1CCN(C#N)CC1CC[N+](=O)[O-] (stereo not given) has a TGI of over 100 µM.

Each compound was assayed on SR leukemia (assay: NCI tumour cell line growth inhibition, 48 h).
Compound Brc1ccc(N=c2nc3ccccn3n3nc(-c4ccccc4)cc23)cc1 has a TGI of over 100 µM. With O=CN/C=C/c1cc(O)ccc1O the TGI was 48.2 µM. COC(=O)CC1CCN(C#N)CC1CC[N+](=O)[O-] (stereo not given) was tested, and the TGI was over 100 µM.

Each compound was assayed on SF-295 CNS (assay: NCI tumour cell line growth inhibition, 48 h).
In the case of C/C(CC(=O)CCC(=O)Nc1cccc(C(F)(F)F)c1)=N\NC(=O)NN, the TGI is reported as over 100 µM. COc1ccccc1C12OC(=O)C1(C)Oc1ccccc1C2=O (stereo not given) gave a TGI of over 100 µM. Work on Brc1ccc(N=c2nc3ccccn3n3nc(-c4ccccc4)cc23)cc1 yielded a TGI of over 100 µM. Work on O=CN/C=C/c1cc(O)ccc1O yielded a TGI of over 100 µM.

Each compound was assayed on HOP-18 NSCLC (assay: NCI tumour cell line growth inhibition, 48 h).
C/C(CC(=O)CCC(=O)Nc1cccc(C(F)(F)F)c1)=N\NC(=O)NN gave a TGI of over 100 µM. Brc1ccc(N=c2nc3ccccn3n3nc(-c4ccccc4)cc23)cc1 gave a TGI of over 100 µM. For O=CN/C=C/c1cc(O)ccc1O, the TGI was over 56.8 µM. COC(=O)CC1CCN(C#N)CC1CC[N+](=O)[O-] (stereo not given) was tested, and the TGI was over 100 µM.

The compounds below were run on SNB-19 CNS (assay: NCI tumour cell line growth inhibition, 48 h).
C/C(CC(=O)CCC(=O)Nc1cccc(C(F)(F)F)c1)=N\NC(=O)NN was tested, and the TGI was over 100 µM. COc1ccccc1C12OC(=O)C1(C)Oc1ccccc1C2=O (stereo not given) gave a TGI of over 100 µM. Brc1ccc(N=c2nc3ccccn3n3nc(-c4ccccc4)cc23)cc1 showed a TGI of 95.1 µM. With O=CN/C=C/c1cc(O)ccc1O the TGI was over 100 µM. Compound COC(=O)CC1CCN(C#N)CC1CC[N+](=O)[O-] (stereo not given) has a TGI of over 100 µM.

Each compound was assayed on HCC-2998 colon (assay: NCI tumour cell line growth inhibition, 48 h).
C/C(CC(=O)CCC(=O)Nc1cccc(C(F)(F)F)c1)=N\NC(=O)NN gave a TGI of over 100 µM. COc1ccccc1C12OC(=O)C1(C)Oc1ccccc1C2=O (stereo not given) showed a TGI of over 100 µM. O=CN/C=C/c1cc(O)ccc1O showed a TGI of over 100 µM. COC(=O)CC1CCN(C#N)CC1CC[N+](=O)[O-] (stereo not given) was tested, and the TGI was over 100 µM.

Each compound was assayed on UACC-62 melanoma (assay: NCI tumour cell line growth inhibition, 48 h).
C/C(CC(=O)CCC(=O)Nc1cccc(C(F)(F)F)c1)=N\NC(=O)NN gave a TGI of over 100 µM. COc1ccccc1C12OC(=O)C1(C)Oc1ccccc1C2=O (stereo not given) showed a TGI of over 100 µM. Work on Brc1ccc(N=c2nc3ccccn3n3nc(-c4ccccc4)cc23)cc1 yielded a TGI of 63.3 µM. With O=CN/C=C/c1cc(O)ccc1O the TGI was 27.3 µM. In the case of COC(=O)CC1CCN(C#N)CC1CC[N+](=O)[O-] (stereo not given), the TGI is reported as over 100 µM.

The compounds below were run on SN12K1 renal (assay: NCI tumour cell line growth inhibition, 48 h).
With O=CN/C=C/c1cc(O)ccc1O the TGI was 32.4 µM.
